Measured values as given in patent publication US20200277649A1, “BROAD SPECTRUM DETECTION OF DNA DAMAGE BY REPAIR ASSISTED DAMAGE DETECTION (RADD)” (University of South Alabama, priority 2017, published 2020).

Tested on: CHO-K1 cells
Assay: RADD detection of BrdU incorporation into genomic DNA
Format: cell-based, Chinese hamster
Conditions: CHO-K1 cells sensitized 24 h, versus basal levels, FIG. 5A

With `O=c1[nH]c(=O)n([C@H]2C[C@H](O)[C@@H](CO)O2)cc1Br` [BrdU, bromodeoxyuridine] the “RADD mean fluorescence intensity of the nucleus (DNA lesions)” value was “increased levels of DNA lesions”.
